Patent publication US11312727B1, “Macrocyclic flu endonuclease inhibitors” (Janssen BioPharma, Inc., priority 2018, dated 2022)

Columns and labels:
[1] = tested on: Influenza strain A549 A/WSN/33 (H1N1); assay: microbe, parasite or virus in culture; type: cell-based; settings: Influenza A virus, A549, 20 h, A549 cells, influenza A/WSN/33 (H1N1), 20 hours incubation; read-out: A549_A(H1N1) EC50
in vitro = settings: human, CC50, uninfected A549 cells, CellTiter-Glo

## CC[C@H]1/C=C/COc2cc(F)ccc2[C@@H](c2ccccc2)N2CN1C(=O)c1c(O)c(=O)ccn12 (single isomer, unassigned) [Compound 89AA, (9*S,18*R,E)-9-ethyl-3-fluoro-12-hydroxy-18-phenyl-6,9-dihydro-18H-10,17-methanobenzo[b]pyrido[1,2-f][1]oxa[5,6,9]triazacyclotridecine-11,13-dione]
[1]
  EC50: 10800 nM
In vitro
  CC50: 39300 nM

## CC[C@@H]1/C=C/COc2cc(F)ccc2[C@H](c2ccccc2)N2CN1C(=O)c1c(O)c(=O)ccn12 (single isomer, unassigned) [Compound 89BB, (9*R,18*S,E)-9-ethyl-3-fluoro-12-hydroxy-18-phenyl-6,9-dihydro-18H-10,17-methanobenzo[b]pyrido[1,2-f][1]oxa[5,6,9]triazacyclotridecine-11,13-dione]
[1]
  EC50: 3 nM
In vitro
  CC50: > 200 nM

## C[C@@H]1N2C/C=C/COc3c(F)cccc3[C@@H](c3ccccc3)N1n1ccc(=O)c(O)c1C2=O (single isomer, unassigned) [Compound 91A, (18*R,19*R,E)-4-fluoro-12-hydroxy-19-methyl-18-phenyl-6,9-dihydro-18H-10,17-methanobenzo[b]pyrido[1,2-f][1]oxa[5,6,9]triazacyclotridecine-11,13-dione]
[1]
  EC50: 3 nM
In vitro
  CC50: > 1000 nM

## C[C@H]1N2C/C=C/COc3c(F)cccc3[C@H](c3ccccc3)N1n1ccc(=O)c(O)c1C2=O (single isomer, unassigned) [Compound 91B, (18*S,19*S,E)-4-fluoro-12-hydroxy-19-methyl-18-phenyl-6,9-dihydro-18H-10,17-methanobenzo[b]pyrido[1,2-f][1]oxa[5,6,9]triazacyclotridecine-11,13-dione]
[1]
  EC50: > 500 nM
In vitro
  CC50: > 1000 nM

## O=C1c2c(O)c(=O)ccn2N2CN1CC/C=C\COc1ccc(F)c3c1[C@@H]2c1ccccc1SC3 (single isomer, unassigned) [Compound 93A, (1*R,13Z)-20-fluoro-7-hydroxy-16-oxa-23-thia-2,3,10-triazahexacyclo[15.12.1.12,10.03,8.021,30.024,29]hentriaconta-4,7,13,17,19,21(30),24(29),25,27-nonaene-6]
[1]
  EC50: > 500 nM
In vitro
  CC50: > 1000 nM

## O=C1c2c(O)c(=O)ccn2N2CN1CC/C=C\COc1ccc(F)c3c1[C@H]2c1ccccc1SC3 (single isomer, unassigned) [Compound 93B, (1*SR,13Z)-20-fluoro-7-hydroxy-16-oxa-23-thia-2,3,10-triazahexacyclo[15.12.1.12,10.03,8.021,30.024,29]hentriaconta-4,7,13,17,19,21(30),24(29),25,27-nonaene-6]
[1]
  EC50: 2.2 nM
In vitro
  CC50: > 200 nM

## O=C1c2c(O)c(=O)ccn2N2CN1C/C=C\COc1cc(C(F)F)ccc1[C@@H]2c1ccccc1 (single isomer, unassigned) [Compound 94A, (18*S,Z)-3-(difluoromethyl)-12-hydroxy-18-phenyl-6,9-dihydro-18H-10,17-methanobenzo[b]pyrido[1,2-f][1]oxa[5,6,9]triazacyclotridecine-11,13-dione]
[1]
  EC50: 25.7 nM
In vitro
  CC50: > 1000 nM

## O=C1c2c(O)c(=O)ccn2N2CN1C/C=C\COc1cc(C(F)F)ccc1[C@H]2c1ccccc1 (single isomer, unassigned) [Compound 94B, (18*R,Z)-3-(difluoromethyl)-12-hydroxy-18-phenyl-6,9-dihydro-18H-10,17-methanobenzo[b]pyrido[1,2-f][1]oxa[5,6,9]triazacyclotridecine-11,13-dione]
[1]
  EC50: > 500 nM
In vitro
  CC50: > 1000 nM

## O=C1c2c(O)c(=O)ccn2N2CN1C1(/C=C/COc3c(F)cccc3[C@@H]2c2ccccc2)CC1 (single isomer, unassigned) [Compound 95A, (18′*S,E)-4′-fluoro-12′-hydroxy-18′-phenyl-6′H,18′H-spiro[cyclopropane-1,9′-[10,17]methanobenzo[b]pyrido[1,2-f][1]oxa[5,6,9]triazacyclotridecine]-11′,13′-dione]
[1]
  EC50: > 500 nM
In vitro
  CC50: > 1000 nM

## O=C1c2c(O)c(=O)ccn2N2CN1C1(/C=C/COc3c(F)cccc3[C@H]2c2ccccc2)CC1 (single isomer, unassigned) [Compound 95B, (18′*R,E)-4′-fluoro-12′-hydroxy-18′-phenyl-6′H,18′H-spiro[cyclopropane-1,9′-[10,17]methanobenzo[b]pyrido[1,2-f][1]oxa[5,6,9]triazacyclotridecine]-11′,13′-dione]
[1]
  EC50: 1.7 nM
In vitro
  CC50: > 1000 nM

## O=C1c2c(O)c(=O)ccn2N2CN1C1(/C=C/COc3c(Cl)cccc3[C@H]2c2ccccc2)CC1 (single isomer, unassigned) [Compound 96A, (18′*R,E)-4′-chloro-12′-hydroxy-18′-phenyl-6′H,18′H-spiro[cyclopropane-1,9′-[10,17]methanobenzo[b]pyrido[1,2-f][1]oxa[5,6,9]triazacyclotridecine]-11′,13′-dione]
[1]
  EC50: 1.9 nM
In vitro
  CC50: > 200 nM

## O=C1c2c(O)c(=O)ccn2N2CN1C1(/C=C/COc3c(Cl)cccc3[C@@H]2c2ccccc2)CC1 (single isomer, unassigned) [Compound 96B]
[1]
  EC50: > 500 nM
In vitro
  CC50: > 1000 nM

## CC[C@@H]1/C=C/COc2cc(Cl)ccc2[C@@H](c2ccccc2)N2CN1C(=O)c1c(O)c(=O)ccn12 (single isomer, unassigned) [Compound 97AA]
[1]
  EC50: 5.8 nM
In vitro
  CC50: > 1000 nM

## CC[C@H]1/C=C/COc2cc(Cl)ccc2[C@@H](c2ccccc2)N2CN1C(=O)c1c(O)c(=O)ccn12 (single isomer, unassigned) [Compound 97AB]
[1]
  EC50: 5.6 nM
In vitro
  CC50: > 1000 nM

## CC[C@@H]1/C=C/COc2cc(Cl)ccc2[C@H](c2ccccc2)N2CN1C(=O)c1c(O)c(=O)ccn12 (single isomer, unassigned) [Compound 97BA]
[1]
  EC50: > 500 nM
In vitro
  CC50: > 1000 nM

## CC[C@H]1/C=C/COc2cc(Cl)ccc2[C@H](c2ccccc2)N2CN1C(=O)c1c(O)c(=O)ccn12 (single isomer, unassigned) [Compound 97BB]
[1]
  EC50: > 500 nM
In vitro
  CC50: > 1000 nM

## CC[C@H]1/C=C/COc2c(Cl)cccc2[C@H](c2ccccc2)N2CN1C(=O)c1c(O)c(=O)ccn12 (single isomer, unassigned) [Compound 98AA, (9*S,18*S,E)-4-chloro-9-ethyl-12-hydroxy-18-phenyl-6,9-dihydro-18H-10,17-methanobenzo[b]pyrido[1,2-f][1]oxa[5,6,9]triazacyclotridecine-11,13-dione]
[1]
  EC50: > 500 nM
In vitro
  CC50: > 1000 nM

## CC[C@@H]1/C=C/COc2c(Cl)cccc2[C@H](c2ccccc2)N2CN1C(=O)c1c(O)c(=O)ccn12 (single isomer, unassigned) [Compound 98AB, (9*R,18*S,E)-4-chloro-9-ethyl-12-hydroxy-18-phenyl-6,9-dihydro-18H-10,17-methanobenzo[b]pyrido[1,2-f][1]oxa[5,6,9]triazacyclotridecine-11,13-dione]
[1]
  EC50: 2.2 nM
In vitro
  CC50: > 200 nM

## CC[C@H]1/C=C/COc2c(Cl)cccc2[C@@H](c2ccccc2)N2CN1C(=O)c1c(O)c(=O)ccn12 (single isomer, unassigned) [Compound 98BA, (9*S,18*R,E)-4-chloro-9-ethyl-12-hydroxy-18-phenyl-6,9-dihydro-18H-10,17-methanobenzo[b]pyrido[1,2-f][1]oxa[5,6,9]triazacyclotridecine-11,13-dione]
[1]
  EC50: 830 nM
In vitro
  CC50: 26400 nM

## CC[C@@H]1/C=C/COc2c(Cl)cccc2[C@@H](c2ccccc2)N2CN1C(=O)c1c(O)c(=O)ccn12 (single isomer, unassigned) [Compound 98BB, (9*R,18*R,E)-4-chloro-9-ethyl-12-hydroxy-18-phenyl-6,9-dihydro-18H-10,17-methanobenzo[b]pyrido[1,2-f][1]oxa[5,6,9]triazacyclotridecine-11,13-dione]
[1]
  EC50: 2.1 nM
In vitro
  CC50: > 1000 nM

## O=C1c2c(O)c(=O)ccn2N2CN1CCOCCOc1ccccc1[C@H]2c1ccccc1 (single isomer, unassigned) [Compound 99A, (2*R)-18-hydroxy-2-phenyl-9,12-dioxa-1,15,22-triazatetracyclo[13.7.1.03,8.017,22]tricosa-3,5,7,17,20-pentaene-16,19-dione]
[1]
  EC50: > 500 nM
In vitro
  CC50: > 1000 nM

## O=C1c2c(O)c(=O)ccn2N2CN1CCOCCOc1ccccc1[C@@H]2c1ccccc1 (single isomer, unassigned) [Compound 99B, (2*S)-18-hydroxy-2-phenyl-9,12-dioxa-1,15,22-triazatetracyclo[13.7.1.03,8.017,22]tricosa-3,5,7,17,20-pentaene-16,19-dione]
[1]
  EC50: 167 nM
In vitro
  CC50: > 1000 nM

## C[C@H]1C/C=C/COc2c(F)cccc2[C@@H](c2ccccc2)N2CN1C(=O)c1c(O)c(=O)ccn12 (single isomer, unassigned) [Compound 100AA, (2*R,9*S,*E)-33-fluoro-15-hydroxy-9-methyl-2-phenyl-12,13,14,16-tetrahydro-11H-4-oxa-1(1,3)-pyrido[2,1-f][1,2,4]triazina-3(1,2)-benzenacyclononaphan-6-ene-14,16-dione]
[1]
  EC50: 1.7 nM
In vitro
  CC50: > 100 nM

## C[C@@H]1C/C=C/COc2c(F)cccc2[C@@H](c2ccccc2)N2CN1C(=O)c1c(O)c(=O)ccn12 (single isomer, unassigned) [Compound 100AB, (2*R,9*R,*E)-33-fluoro-15-hydroxy-9-methyl-2-phenyl-12,13,14,16-tetrahydro-11H-4-oxa-1(1,3)-pyrido[2,1-f][1,2,4]triazina-3(1,2)-benzenacyclononaphan-6-ene-14,16-dione]
[1]
  EC50: 2.1 nM
In vitro
  CC50: > 200 nM

## C[C@H]1C/C=C/COc2c(F)cccc2[C@H](c2ccccc2)N2CN1C(=O)c1c(O)c(=O)ccn12 (single isomer, unassigned) [Compound 100BA, (2*S,9*S,*E)-33-fluoro-15-hydroxy-9-methyl-2-phenyl-12,13,14,16-tetrahydro-11H-4-oxa-1(1,3)-pyrido[2,1-f][1,2,4]triazina-3(1,2)-benzenacyclononaphan-6-ene-14,16-dione]
[1]
  EC50: 5210 nM
In vitro
  CC50: 40200 nM
